For one assay, the system named is BAX. Briefly: Western blot, BAX level. It is filed as cell-based, human. Particulars: HCT-116, 2.44 μM, 48 h; control = 1.00. Here is the method: (§1) In comparison to the control, compound 16 elevated the level of the proapoptotic protein (BAX) by 2.18 times. […] Furthermore, compound 16 enhanced the BAX/Bcl-2 ratio by 4.38-fold in comparison to control cells.
(§2) The effects of compound 16 on the expression of BAX, and Bcl‐2 were determined using Western blot analysis [62–64]as described in Electronic Supplementary Material S2.7 in S1 Appendix. […]
(§3) for 48 h. Then, the cells were fixed in 70% ethanol at 4 °C for 12 h. After that, the cells were washed with cold PBS, incubated with 100 μl RNase A at 37 °C for 30 min, and stained with 400 μl PI in the dark at room temperature for further 30 min. The stained cells were measured using Epics XL-MCL™ Flow Cytometer (Beckman Coulter), and the data were analyzed using Flowing software (version 2.5.1, Turku Centre for Biotechnology, Turku, Finland).
(§4) S2.6. Flow cytometry analysis for apoptosis
(§5) Flow cytometry cell apoptosis analysis was used to investigate the apoptotic effect of the synthesized compounds. […] The stained cells were measured using Epics XL-MCL™ Flow Cytometer and analyzed using Flowing software. […]
(§6) The proteins expression of BAX, and Bcl‐2 were determined using Western blot analysis. […] Total protein concentrations in the supernatant were determined colorimetrically using the Pierce 660 nm Protein Assay method (Thermo Fisher Scientific, Rockford, IL), with BSA as the standard. […]

For another assay, the system named is BAX/Bcl-2 ratio. Put plainly: Western blot, BAX/Bcl-2 ratio. The settings on record: HCT-116, 2.44 μM, 48 h; control = 1.00. It is filed as cell-based, human. How it is done:
as §1, §2, §3, §4, §5, §6

The test system of assay [1] is Activated Calf Thymus DNA. Put plainly: DNA/methyl green assay (DNA intercalation). In kind it is binding. Here is the method:
The most promising members (13a, 14a, 16, 17, 18, 19, and 20) were further investigated for their binding affinity against DNA. […] The results of DNA-binding affinities were reported in Table 1 as IC50 values calculated from the concentration-inhibition response curve.
Activated Calf Thymus DNA (Merk, Germany) was treated with methyl green (Merk, Germany), then the synthesized compounds were applied to displace the methyl green dye, producing equivalent color.
After that, the DNA was run on 1% agarose gel in BioRad gel electrophoresis system for 1–2 h followed by staining with GelRedTM stain for 2 h and destained for 15 min with TAE buffer. The gel was imaged via BioRad’s Gel DocTMEZ system. Both supercoiled and linear strands DNA were incorporated in the gel as markers for DNA-Topo II intercalators. The results of IC50 values were calculated using the GraphPad Prism version 7. Each reaction was performed in duplicate, and at least three independent determinations of each IC50 were made.
S2.3. DNA/Methyl Green Assay […]
methyl green dye method described by Burres et al. Activated Calf Thymus DNA (Merk, Germany) was treated with methyl green (Merk, Germany), then the synthesized compounds were applied to displace the methyl green dye, producing equivalent color. […]

The test system of the next assay is HCT-116 cells. Put plainly: Flow cytometry cell cycle analysis (propidium iodide). It is filed as cell-based, human. The settings on record: HCT-116, 2.44 μM, 48 h, mean ± SEM.

In the case of `CCCNc1nc2ccccc2c2nnc(C(F)(F)F)n12` [Compound 16, N-Propyl-3-(trifluoromethyl)-[1,2,4]triazolo[4,3-c]quinazolin-5-amine], the “Protein expression (normalized to β-actin) BAX” value with BAX worked out at 2.18 ± 0.12. Besides, the “Protein expression (normalized to β-actin) BAX/Bcl-2 ratio” value in the assay with BAX/Bcl-2 ratio was determined as 4.38 ± 0.86. The IC50 in assay [1] (50% inhibition concentration of DNA/methyl green assay, read-out: DNA/Methyl green (IC50)) amounted to 10.2 ± 0.4 µM. For the same compound, the “LogIC50 (best-fit value, DNA/Topo-II Inhibition (%) curve)” value in assay [1] (log of drug concentration in uM, supplement curve fit) was determined as 1.011. Moreover, the “HillSlope (best-fit value, DNA/Topo-II Inhibition (%) curve)” value in assay [1] (supplement curve fit) is recorded as 0.3743. In addition, in the assay with HCT-116 cells, the “Cell cycle distribution % G2/M” value is 36.89 ± 1.81 %, the “Cell cycle distribution %G1” value was 19.05 ± 1.38 %, the “Cell cycle distribution %S” value is reported as 42.76 ± 2.48 % and the “Cell cycle distribution %Sub-G1” value is 1.30 ± 0.18%.

These data come from PMC9886266, “New [1,2,4]triazolo[4,3-c]quinazolines as intercalative Topo II inhibitors: Design, synthesis, biological evaluation, and in silico studies” (PLOS ONE, 2023).
